Measured values as given in patent publication US20070264247A1, “Use of Human Lysozyme in Preparation of Medicine for Treating Acne” (priority 2004, published 2007).
In brackets after ≈: the same amount, converted by molar mass. Where two headings read alike, the source gives them in different places.

Assays:
Assay in all cases: MIC by double agar dilution method, clinical isolates
Assay type in all cases: cell-based
[1] = test system: Escherichia coli
Method: (§1) Strain: Pathogenic bacteria isolated from clinical laboratory collected from Sichuan, Beijing, 2002.4˜2003.9, assessed using the method of API in our laboratory.
(§2) Test the minimum inhibitory concentration (MIC) of the tested drug against the strains using the double agar dilution method. The tested drug was dissolved in sterile purified water and diluted properly. The drug-containing petri dishes were prepared by spiking 1 ml drug conclusion with melted 9 ml Tris —HCl agarose solid medium, using agar twofold dilution method and obtained the concentration of 4, 2, 1, 0.5, 0.25, 0.125, 0.06, 0.03 . . . 0.001 mg/ml. The strain solution of 10^5 CFU/ml was inoculated on the petri dishes using the multipoint inoculator, cultured for 8-10 h at 37° C., covered the petri dishes using melted 6 ml M-H Medium (50° C.) respectively, cultured for 10 h at 37° C. The minimal concentration of the drug-containing petri dishes which had no bacterium growth was the minimal inhibitory concentration (MIC).

[2] = test system: Staphylococcu epidermidis
Method: as §1, §2

[3] = test system: Staphylococcus aureus
Method: as §1, §2

[4] = test system: Serratia marcescens
Method: as §1, §2

[5] = test system: Klebsiella pneumoniae
Method: as §1, §2

[6] = test system: Propionibacterium
Method: as §1, §2

[7] = Escherichia coli 03-2-41, read-out: MIC
[8] = Escherichia coli 03-2-42, read-out: MIC
[9] = Escherichia coli 03-2-43, read-out: MIC
[10] = Escherichia coli 03-2-45, read-out: MIC
[11] = Escherichia coli 03-2-51, read-out: MIC
[12] = Escherichia coli 03-2-52, read-out: MIC
[13] = Escherichia coli 03-2-53, read-out: MIC
[14] = Escherichia coli 03-2-54, read-out: MIC
[15] = Escherichia coli 03-2-56, read-out: MIC
[16] = Escherichia coli 03-2-57, read-out: MIC
[17] = Escherichia coli 03-2-58, read-out: MIC
[18] = Staphylococcu epidermidis MRSE02-3
[19] = Staphylococcu epidermidis MRSE02-4
[20] = Staphylococcu epidermidis MRSE02-5
[21] = Staphylococcu epidermidis MRSE02-6
[22] = Staphylococcu epidermidis MRSE02-10
[23] = Staphylococcu epidermidis MRSE02-11
[24] = Staphylococcu epidermidis MRSE02-12
[25] = Staphylococcu epidermidis MRSE02-15
[26] = Staphylococcu epidermidis MRSE02-17
[27] = Staphylococcu epidermidis MRSE02-18
[28] = Staphylococcu epidermidis MRSE02-20
[29] = Staphylococcu epidermidis MRSE02-20-1
[30] = Staphylococcu epidermidis MRSE02-20-2
[31] = Staphylococcu epidermidis MRSE02-20-3
[32] = Staphylococcu epidermidis MRSE02-20-4
[33] = Staphylococcu epidermidis MRSE02-20-5
[34] = Staphylococcu epidermidis MRSE02-20-6
[35] = Staphylococcu epidermidis MRSE02-20-7
[36] = Staphylococcu epidermidis MRSE02-20-8
[37] = Staphylococcu epidermidis MRSE02-20-9
[38] = Staphylococcu epidermidis MRSE02-21
[39] = Staphylococcu epidermidis MRSE02-22
[40] = Staphylococcu epidermidis MRSE02-29
[41] = Staphylococcu epidermidis MssE25
[42] = Staphylococcus aureus MRSA02-22, read-out: MIC
[43] = Staphylococcus aureus MRSA02-23
[44] = Staphylococcus aureus MRSA02-26
[45] = Staphylococcus aureus MRSA02-28
[46] = Serratia marcescens 2-31-8 (first line)
[47] = Serratia marcescens 2-31-8 (second line)
[48] = Serratia marcescens 2-31-8 (third line)

Structure (SMILES): CC[C@H]1OC(=O)[C@H](C)[C@@H](O[C@H]2C[C@@](C)(OC)[C@@H](O)[C@H](C)O2)[C@H](C)[C@@H](O[C@@H]2O[C@H](C)C[C@H](N(C)C)[C@H]2O)[C@](C)(OC)C[C@@H](C)C(=O)[C@H](C)[C@@H](O)[C@]1(C)O [CLA, Clarithromycin]
- MIC [1]: 125 µg/mL (≈ 167 µM)
- MIC [1, 7]: > 1000 µg/mL
- MIC [1, 8]: 63 µg/mL (≈ 84.2 µM)
- MIC [1, 9]: 16 µg/mL (≈ 21.4 µM)
- MIC [1, 10]: 250 µg/mL (≈ 334 µM)
- MIC [1, 11]: > 1000 µg/mL
- MIC [1, 12]: > 1000 µg/mL
- MIC [1, 13]: 30 µg/mL (≈ 40.1 µM)
- MIC [1, 14]: > 1000 µg/mL
- MIC [1, 15]: 16 µg/mL (≈ 21.4 µM)
- MIC [1, 16]: 32 µg/mL (≈ 42.8 µM)
- MIC [1, 17]: > 1000 µg/mL
- MIC [2, 18]: > 1000 µg/mL
- MIC [2, 19]: 500 µg/mL (≈ 668 µM)
- MIC [2, 20]: < 1 µg/mL
- MIC [2, 21]: < 1 µg/mL
- MIC [2, 22]: 1000 µg/mL (≈ 1340 µM)
- MIC [2, 23]: < 1 µg/mL
- MIC [2, 24]: 8 µg/mL (≈ 10.7 µM)
- MIC [2, 25]: 1000 µg/mL (≈ 1340 µM)
- MIC [2, 26]: 250 µg/mL (≈ 334 µM)
- MIC [2, 27]: < 1 µg/mL
- MIC [2, 28]: > 1000 µg/mL
- MIC [2, 29]: < 1 µg/mL
- MIC [2, 30]: > 1000 µg/mL
- MIC [2, 31]: > 1000 µg/mL
- MIC [2, 32]: > 1000 µg/mL
- MIC [2, 33]: > 1000 µg/mL
- MIC [2, 34]: > 1000 µg/mL
- MIC [2, 35]: 1000 µg/mL (≈ 1340 µM)
- MIC [2, 36]: < 1 µg/mL
- MIC [2, 37]: < 1 µg/mL
- MIC [2, 38]: < 1 µg/mL
- MIC [2, 39]: < 1 µg/mL
- MIC [2, 40]: 30 µg/mL (≈ 40.1 µM)
- MIC [2, 41]: < 1 µg/mL
- MIC ([3]; Staphylococcus aureus 02-19-5): >1000 µg/mL
- MIC [3, 42]: > 1000 µg/mL
- MIC [3, 43]: >1000 µg/mL
- MIC [3, 44]: >1000 µg/mL
- MIC [3, 45]: >1000 µg/mL
- MIC [4, 46]: 8 µg/mL (≈ 10.7 µM)
- MIC [4, 47]: 8 µg/mL (≈ 10.7 µM)
- MIC [4, 48]: 16 µg/mL (≈ 21.4 µM)
- MIC ([5]; Klebsiella pneumoniae 02-6-14): 63 µg/mL (≈ 84.2 µM)
- MIC ([5]; Klebsiella pneumoniae 02-6-18): 500 µg/mL (≈ 668 µM)
- MIC ([6]; Propionibacterium 02-7-4): 2 µg/mL (≈ 2.67 µM)
- MIC ([6]; Propionibacterium 02-7-5): < 1 µg/mL
- MIC ([6]; Propionibacterium 02-7-6): 8 µg/mL (≈ 10.7 µM)
- MIC ([6]; Propionibacterium 02-7-7): 32 µg/mL (≈ 42.8 µM)
- MIC ([6]; Propionibacterium 02-7-9): 8 µg/mL (≈ 10.7 µM)
- MIC ([6]; Propionibacterium 03-2-22): 1000 µg/mL (≈ 1340 µM)
- MIC ([6]; Propionibacterium 03-2-30): > 1000 µg/mL
- MIC ([6]; Propionibacterium 03-2-32): 8 µg/mL (≈ 10.7 µM)
- MIC ([6]; Propionibacterium 03-2-33): > 1000 µg/mL
- MIC ([6]; Propionibacterium 03-2-36): 250 µg/mL (≈ 334 µM)
- MIC ([6]; Propionibacterium 03-2-37): > 1000 µg/mL
- MIC ([6]; Propionibacterium 03-2-39): 500 µg/mL (≈ 668 µM)

Structure (SMILES): CC[C@H]1OC(=O)[C@H](C)[C@@H](O[C@H]2C[C@@](C)(OC)[C@@H](O)[C@H](C)O2)[C@H](C)[C@@H](O[C@@H]2O[C@H](C)C[C@H](N(C)C)[C@H]2O)[C@](C)(O)C[C@@H](C)/C(=N\OCOCCOC)[C@H](C)[C@@H](O)[C@]1(C)O [ROX, Roxithromycin]
- MIC [1, 7]: > 1000 µg/mL
- MIC [1, 8]: > 1000 µg/mL
- MIC [1, 9]: 250 µg/mL (≈ 299 µM)
- MIC [1, 10]: 500 µg/mL (≈ 597 µM)
- MIC [1, 11]: > 1000 µg/mL
- MIC [1, 12]: 250 µg/mL (≈ 299 µM)
- MIC [1, 13]: 250 µg/mL (≈ 299 µM)
- MIC [1, 14]: 1000 µg/mL (≈ 1190 µM)
- MIC [1, 15]: 250 µg/mL (≈ 299 µM)
- MIC [1, 16]: 250 µg/mL (≈ 299 µM)
- MIC [1, 17]: 500 µg/mL (≈ 597 µM)
- MIC ([1]; Escherichia coli 03-2-59, read-out: MIC): 250 µg/mL (≈ 299 µM)
- MIC [2, 18]: > 1000 µg/mL
- MIC [2, 19]: > 1000 µg/mL
- MIC [2, 20]: < 1 µg/mL
- MIC [2, 21]: < 1 µg/mL
- MIC [2, 22]: 1000 µg/mL (≈ 1190 µM)
- MIC [2, 23]: < 1 µg/mL
- MIC [2, 24]: 125 µg/mL (≈ 149 µM)
- MIC [2, 25]: > 1000 µg/mL
- MIC [2, 26]: > 1000 µg/mL
- MIC [2, 27]: < 1 µg/mL
- MIC [2, 28]: > 1000 µg/mL
- MIC [2, 29]: < 1 µg/mL
- MIC [2, 30]: > 1000 µg/mL
- MIC [2, 31]: > 1000 µg/mL
- MIC [2, 32]: > 1000 µg/mL
- MIC [2, 33]: > 1000 µg/mL
- MIC [2, 34]: > 1000 µg/mL
- MIC [2, 35]: 1000 µg/mL (≈ 1190 µM)
- MIC [2, 36]: < 1 µg/mL
- MIC [2, 37]: < 1 µg/mL
- MIC [2, 38]: < 1 µg/mL
- MIC [2, 39]: < 1 µg/mL
- MIC [2, 40]: 500 µg/mL (≈ 597 µM)
- MIC [2, 41]: < 1 µg/mL
- MIC ([3]; Staphylococcus aureus 02-19-5): >1000 µg/mL
- MIC [3, 42]: > 1000 µg/mL
- MIC [3, 43]: >1000 µg/mL
- MIC [3, 44]: >1000 µg/mL
- MIC [3, 45]: >1000 µg/mL
- MIC [4, 46]: 16 µg/mL (≈ 19.1 µM)
- MIC [4, 47]: 16 µg/mL (≈ 19.1 µM)
- MIC [4, 48]: 16 µg/mL (≈ 19.1 µM)
- MIC ([5]; Klebsiella pneumoniae 02-6-14): > 1000 µg/mL
- MIC ([5]; Klebsiella pneumoniae 02-6-18): 1000 µg/mL (≈ 1190 µM)
- MIC ([6]; Propionibacterium 02-7-4): 2 µg/mL (≈ 2.39 µM)
- MIC ([6]; Propionibacterium 02-7-5): < 1 µg/mL
- MIC ([6]; Propionibacterium 02-7-6): 250 µg/mL (≈ 299 µM)
- MIC ([6]; Propionibacterium 02-7-7): 250 µg/mL (≈ 299 µM)
- MIC ([6]; Propionibacterium 02-7-9): 16 µg/mL (≈ 19.1 µM)
- MIC ([6]; Propionibacterium 03-2-22): 1000 µg/mL (≈ 1190 µM)
- MIC ([6]; Propionibacterium 03-2-30): > 1000 µg/mL
- MIC ([6]; Propionibacterium 03-2-32): 500 µg/mL (≈ 597 µM)
- MIC ([6]; Propionibacterium 03-2-33): > 1000 µg/mL
- MIC ([6]; Propionibacterium 03-2-36): 500 µg/mL (≈ 597 µM)
- MIC ([6]; Propionibacterium 03-2-37): 1000 µg/mL (≈ 1190 µM)
- MIC ([6]; Propionibacterium 03-2-39): 1000 µg/mL (≈ 1190 µM)
